Our source for the Activity and IC50 values is ChEMBL document CHEMBL3399926, “Synthesis and structure-activity relationships of boswellic acid derivatives as potent VEGFR-2 inhibitors” (Bioorg Med Chem, 2015).

SMILES strings stand for the structures.

The first test relates to HUVEC. Nature of the test: Induction of apoptosis in HUVEC cells. It counts as functional, cell-based. Conditions: Homo sapiens.
For `C[C@H]1[C@H](C)CC[C@]2(C)CC[C@]3(C)C(=CC(=O)[C@@H]4[C@@]5(C)Cc6cn[nH]c6[C@](C)(C(=O)O)[C@@H]5CC[C@]43C)[C@H]12`, the Activity result was “Dose-dependent effect”. The same measure, in the same setting: to `CC(=O)O[C@@H]1CC[C@@]2(C)[C@@H](CC[C@]3(C)[C@@H]2C(=O)C=C2[C@@H]4[C@@H](C)[C@H](C)CC[C@]4(C)CC[C@]23C)[C@@]1(C)C(=O)N1CCNCC1` belongs “Dose-dependent effect”.

In the next test the test system is HUVEC. In words: Antiproliferation activity against HUVEC cells after 48 hrs by CCK-8 assay. Conditions: Homo sapiens. It counts as functional, cell-based.
As a reminder, the IC50 is the concentration needed to halve the response being measured. Turning to `CCNC(=O)[C@]1(C)[C@@H]2CC[C@]3(C)[C@H](C(=O)C=C4[C@@H]5[C@@H](C)[C@H](C)CC[C@]5(C)CC[C@]43C)[C@@]2(C)CC[C@H]1OC(C)=O`, the IC50 was > 100 µM.

Regarding `CC(=O)O[C@@H]1CC[C@@]2(C)[C@@H](CC[C@]3(C)[C@@H]2C(=O)C=C2[C@@H]4[C@@H](C)[C@H](C)CC[C@]4(C)CC[C@]23C)[C@@]1(C)C(=O)N1CCN(C)CC1`, the IC50 turned out to be 70.3 µM. The same measure, in the same setting: to `CC(C)COC(=O)n1ncc2c1[C@](C)(C(=O)O)[C@@H]1CC[C@]3(C)[C@H](C(=O)C=C4[C@@H]5[C@@H](C)[C@H](C)CC[C@]5(C)CC[C@]43C)[C@@]1(C)C2` belongs 3.12 µM. The same measure, in the same setting: with `CC(=O)O[C@@H]1CC[C@@]2(C)[C@@H](CC[C@]3(C)[C@@H]2C(=O)C=C2[C@@H]4[C@@H](C)[C@H](C)CC[C@]4(C)CC[C@]23C)[C@@]1(C)C(=O)Nc1ccncc1` the figure was > 100 µM; with `CO/N=C1\CC[C@@]2(C)[C@@H](CC[C@]3(C)[C@@H]2C(=O)C=C2[C@@H]4[C@@H](C)[C@H](C)CC[C@]4(C)CC[C@]23C)[C@@]1(C)C(=O)O`, 13.1 µM. Take `CC(=O)O[C@@H]1CC[C@@]2(C)[C@@H](CC[C@]3(C)[C@@H]2CC=C2[C@@H]4[C@@H](C)[C@H](C)CC[C@]4(C)CC[C@]23C)[C@@]1(C)C(=O)O`: the IC50 was > 100 µM. Still for that read-out and setting: with `C[C@H]1[C@H](C)CC[C@]2(C)CC[C@]3(C)C(=CC(=O)[C@@H]4[C@@]5(C)Cc6cn[nH]c6[C@](C)(C(=O)O)[C@@H]5CC[C@]43C)[C@H]12` the figure was 2.13 µM; with `C[C@H]1[C@H](C)CC[C@]2(C)CC[C@]3(C)C(=CC(=O)[C@@H]4[C@@]5(C)CC[C@H](N)[C@](C)(C(=O)O)[C@@H]5CC[C@]43C)[C@H]12`, 5.32 µM. On the same count and under the same terms, to `CC(=O)O[C@@H]1CC[C@@]2(C)[C@@H](CC[C@]3(C)[C@@H]2C(=O)C=C2[C@@H]4[C@@H](C)[C@H](C)CC[C@]4(C)CC[C@]23C)[C@@]1(C)C(=O)O` [AKBA] belongs 7.45 µM. Same read-out and setting: with `CC(=O)O[C@@H]1CC[C@@]2(C)[C@@H](CC[C@]3(C)[C@@H]2C(=O)C=C2[C@@H]4[C@@H](C)[C@H](C)CC[C@]4(C)CC[C@]23C)[C@@]1(C)C(=O)N1CCNCC1` the figure was 2.36 µM; with `C[C@H]1[C@H](C)CC[C@]2(C)CC[C@]3(C)C(=CC(=O)[C@@H]4[C@@]5(C)Cc6cnn(C(=O)Nc7ccccc7)c6[C@](C)(C(=O)O)[C@@H]5CC[C@]43C)[C@H]12`, 9.11 µM. Consider `COC(=O)[C@]1(C)[C@@H]2CC[C@]3(C)[C@H](C(=O)C=C4[C@@H]5[C@@H](C)[C@H](C)CC[C@]5(C)CC[C@]43C)[C@@]2(C)CC[C@H]1OC(C)=O`, for which the concentration for half-maximal inhibition (IC50) is 4.6 µM. Take `C[C@H]1[C@H](C)CC[C@]2(C)CC[C@]3(C)C(=CC(=O)[C@@H]4[C@@]5(C)CC/C(=N\O)[C@](C)(C(=O)O)[C@@H]5CC[C@]43C)[C@H]12`: half-maximal inhibition (IC50) was put at 10.8 µM. Still for that read-out and setting: to `CC(=O)O[C@@H]1CC[C@]2(C)[C@H]3C(=O)C=C4[C@@H]5[C@@H](C)[C@H](C)CC[C@]5(C)CC[C@@]4(C)[C@]3(C)CC[C@H]2[C@@]1(C)C#N` belongs > 100 µM; to `CC(=O)O[C@@H]1CC[C@@]2(C)[C@@H](CC[C@]3(C)[C@@H]2C(=O)C=C2[C@@H]4[C@@H](C)[C@H](C)CC[C@]4(C)CC[C@]23C)[C@@]1(C)C(=O)N1CCOCC1`, > 100 µM; to `C[C@H]1[C@H](C)CC[C@]2(C)CC[C@]3(C)C(=CC(=O)[C@@H]4[C@@]5(C)Cc6cnoc6[C@](C)(C(=O)O)[C@@H]5CC[C@]43C)[C@H]12`, 9.92 µM. On the same count and under the same terms, with `CC(=O)n1ncc2c1[C@](C)(C(=O)O)[C@@H]1CC[C@]3(C)[C@H](C(=O)C=C4[C@@H]5[C@@H](C)[C@H](C)CC[C@]5(C)CC[C@]43C)[C@@]1(C)C2` the figure was 9.27 µM.

`CC(=O)O[C@@H]1CC[C@@]2(C)[C@@H](CC[C@]3(C)[C@@H]2C(=O)C=C2[C@@H]4[C@@H](C)[C@H](C)CC[C@]4(C)CC[C@]23C)[C@@]1(C)C(=O)N1CCCCC1` yielded an IC50 of 35.8 µM. Still for that read-out and setting: with `CC(=O)N[C@H]1CC[C@@]2(C)[C@@H](CC[C@]3(C)[C@@H]2C(=O)C=C2[C@@H]4[C@@H](C)[C@H](C)CC[C@]4(C)CC[C@]23C)[C@@]1(C)C(=O)O` the figure was 47.5 µM.

For `C[C@H]1[C@H](C)CC[C@]2(C)CC[C@]3(C)C(=CC(=O)[C@@H]4[C@@]5(C)CC[C@@H](OC(=O)C(F)(F)F)[C@](C)(C(=O)O)[C@@H]5CC[C@]43C)[C@H]12`, the IC50 was determined as 5.13 µM. Still for that read-out and setting: with `CC(=O)O[C@H]1CC[C@@]2(C)[C@@H](CC[C@]3(C)[C@@H]2C(=O)C=C2[C@@H]4[C@@H](C)[C@H](C)CC[C@]4(C)CC[C@]23C)[C@@]1(C)C(=O)O` the figure was 35.8 µM; with `CC(=O)O[C@@H]1CC[C@@]2(C)[C@@H](CC[C@]3(C)[C@@H]2C(=O)C=C2[C@@H]4[C@@H](C)[C@H](C)CC[C@]4(C)CC[C@]23C)[C@@]1(C)C(=O)NCCN`, 3.76 µM; with `C[C@H]1[C@H](C)CC[C@]2(C)CC[C@]3(C)C(=CC(=O)[C@@H]4[C@@]5(C)Cc6c([nH]c7ccccc67)[C@](C)(C(=O)O)[C@@H]5CC[C@]43C)[C@H]12`, 8.22 µM. Take `CC(=O)O[C@@H]1CC[C@@]2(C)[C@@H](CC[C@]3(C)[C@@H]2C(=O)C=C2[C@@H]4[C@@H](C)[C@H](C)CC[C@]4(C)CC[C@]23C)[C@@]1(C)C(=O)NN`: the IC50 was > 100 µM. Still for that read-out and setting: to `CC(=O)O[C@@H]1CC[C@@]2(C)[C@@H](CC[C@]3(C)[C@@H]2C(=O)C=C2[C@@H]4[C@@H](C)[C@H](C)CC[C@]4(C)CC[C@]23C)[C@@]1(C)C(=O)N(C)CCN(C)C` belongs 5.05 µM; to `CC(=O)O[C@@H]1CC[C@@]2(C)[C@@H](CC[C@]3(C)[C@@H]2C(=O)C=C2[C@@H]4[C@@H](C)[C@H](C)CC[C@]4(C)CC[C@]23C)[C@@]1(C)C(=O)N1CCCNCC1`, 2.79 µM. The same measure, in the same setting: with `C[C@H]1[C@H](C)CC[C@]2(C)CC[C@]3(C)C(=CC(=O)[C@@H]4[C@@]5(C)Cc6cnn(C(=O)c7ccccc7)c6[C@](C)(C(=O)O)[C@@H]5CC[C@]43C)[C@H]12` the figure was 6.31 µM; with `CCOC(=O)C(=O)O[C@@H]1CC[C@@]2(C)[C@@H](CC[C@]3(C)[C@@H]2C(=O)C=C2[C@@H]4[C@@H](C)[C@H](C)CC[C@]4(C)CC[C@]23C)[C@@]1(C)C(=O)O`, > 100 µM; with `CC(=O)O[C@@H]1CC[C@@]2(C)[C@@H](CC[C@]3(C)[C@@H]2C(=O)C=C2[C@@H]4[C@@H](C)[C@H](C)CC[C@]4(C)CC[C@]23C)[C@@]1(C)C(=O)NC1CCNCC1`, 8.23 µM. Same read-out and setting: to `CCNC(=O)n1ncc2c1[C@](C)(C(=O)O)[C@@H]1CC[C@]3(C)[C@H](C(=O)C=C4[C@@H]5[C@@H](C)[C@H](C)CC[C@]5(C)CC[C@]43C)[C@@]1(C)C2` belongs 5.8 µM; to `CC(=O)O[C@@H]1CC[C@@]2(C)[C@@H](CC[C@]3(C)[C@@H]2C(=O)C=C2[C@@H]4[C@@H](C)[C@H](C)CC[C@]4(C)CC[C@]23C)[C@@]1(C)C(N)=O`, 5.02 µM; to `C[C@H]1[C@H](C)CC[C@]2(C)CC[C@]3(C)C(=CC(=O)[C@@H]4[C@@]5(C)CC[C@H](O)[C@](C)(C(=O)O)[C@@H]5CC[C@]43C)[C@H]12`, 27.2 µM.
